{"source": "patent US8853232B2", "about": "“Peripheral opioid receptor antagonists and uses thereof” (Progenics Pharmaceuticals, Inc., priority 2007, dated 2014)", "key": {"[1]": {"target": "human mu opioid receptor (Homo sapiens, UniProt P35372)", "sequence (P35372 whole entry)": "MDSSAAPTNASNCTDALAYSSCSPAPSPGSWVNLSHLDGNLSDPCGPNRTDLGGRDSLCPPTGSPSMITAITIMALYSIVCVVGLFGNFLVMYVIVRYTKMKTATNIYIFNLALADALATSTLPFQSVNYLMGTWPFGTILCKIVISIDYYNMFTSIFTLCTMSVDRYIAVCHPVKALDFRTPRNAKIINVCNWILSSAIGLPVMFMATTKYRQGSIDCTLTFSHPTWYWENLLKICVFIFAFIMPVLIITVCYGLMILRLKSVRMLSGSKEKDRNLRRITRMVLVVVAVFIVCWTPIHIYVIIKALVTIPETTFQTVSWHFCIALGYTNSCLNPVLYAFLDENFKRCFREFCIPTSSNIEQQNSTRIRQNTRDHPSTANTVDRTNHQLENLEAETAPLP", "assay": "Radioligand competition binding at the human mu opioid receptor", "settings": "for nH (Hill coefficient): human mu opioid receptor, competition curves", "experimental": "Compounds of the invention were assayed for activity at the human mu opioid receptor by methods substantially similar to those described in Zhang, et al., (1998) “Dynorphin A as a potential endogenous ligand for four members of the opioid receptor gene family.” J. Pharmacol. Exp. Ther., 286: 136-141.\nIC50 values (concentration causing a half-maximal inhibition of control specific binding) and Hill coefficients (nH) were determined by non-linear regression analysis of the competition curves using Hill equation curve fitting.\nInhibition constants (Ki) were calculated from the Cheng Prusoff equation: (Ki=IC50/(1+(L/KD)), where L=concentration of radioligand in the assay, and KD=affinity of the radioligand for the receptor).\nResults are expressed as a percent of control specific binding obtained in the presence of compounds 6-alpha-methylnaltrexol, 6-beta-methylnaltrexol and 3-sulfo-methylnaltrexone."}, "[2]": {"target": "μ-opioid receptors in the guinea pig ileum (Cavia porcellus, UniProt A0ACM8Q262)", "sequence (A0ACM8Q262 1-400)": "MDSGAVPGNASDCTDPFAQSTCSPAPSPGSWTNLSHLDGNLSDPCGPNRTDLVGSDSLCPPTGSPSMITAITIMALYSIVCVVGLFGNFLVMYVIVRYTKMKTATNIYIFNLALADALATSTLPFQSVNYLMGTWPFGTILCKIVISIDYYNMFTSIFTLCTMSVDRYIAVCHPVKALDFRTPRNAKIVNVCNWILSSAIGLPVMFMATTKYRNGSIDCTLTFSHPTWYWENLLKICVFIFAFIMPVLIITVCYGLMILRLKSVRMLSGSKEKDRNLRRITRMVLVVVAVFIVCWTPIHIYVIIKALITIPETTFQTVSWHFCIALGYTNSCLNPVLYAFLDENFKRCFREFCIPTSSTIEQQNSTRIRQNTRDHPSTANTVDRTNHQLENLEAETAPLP", "assay": "Functional activity: inhibition of DAMGO-induced decrease of twitch contraction amplitude in guinea pig ileum", "format": "cell-based", "settings": "read-out: IC50 Value (concentration causing a half-maximal inhibition of DAMGO-induced decrease of twitch contraction amplitude)", "experimental": "The IC50 values (concentration causing a half-maximal inhibition of DAMGO-induced decrease of twitch contraction amplitude) were determined by non-linear regression analysis of the dose-response curves.\nResults are expressed as a concentration causing a half-maximal inhibition of DAMGO-induced decrease of twitch contraction amplitude of guinea-pig ileum in the presence of compounds 6-alpha-methylnaltrexol, 6-beta-methylnaltrexol and 3-sulfo-methylnaltrexone."}}, "data": [{"smiles": "C[N+]1(CC2CC2)CC[C@]23c4c5ccc(O)c4O[C@H]2[C@@H](O)CC[C@@]3(O)[C@H]1C5", "note": "(stereo partly drawn) [Compound I-1, (5α,6α)-17-cyclopropylmethyl-17-methyl-4,5-epoxy-3,6,14-trihydroxy-morphinan bromide]", "values": [{"measurement": "IC50", "setting": "[1]", "result": 110, "unit": "nM"}, {"measurement": "Ki", "setting": "[1]", "result": 30, "unit": "nM"}, {"measurement": "nH (Hill coefficient)", "setting": "[1]", "result": 0.8}, {"measurement": "IC50", "setting": "[2]", "result": 170, "unit": "nM"}]}, {"smiles": "C[N+]1(CC2CC2)CC[C@]23c4c5ccc(O)c4O[C@H]2[C@H](O)CC[C@@]3(O)[C@H]1C5", "note": "(stereo partly drawn) [Compound I-2, (5α,6β)-17-cyclopropylmethyl-17-methyl-4,5-epoxy-3,6,14-trihydroxy-morphinan bromide]", "values": [{"measurement": "IC50", "setting": "[1]", "result": 230, "unit": "nM"}, {"measurement": "Ki", "setting": "[1]", "result": 60, "unit": "nM"}, {"measurement": "nH (Hill coefficient)", "setting": "[1]", "result": 0.9}, {"measurement": "IC50", "setting": "[2]", "result": 140, "unit": "nM"}]}, {"smiles": "C[N+]1(CC2CC2)CC[C@]23c4c5ccc(OS(=O)(=O)O)c4O[C@H]2C(=O)CC[C@@]3(O)[C@H]1C5", "note": "(stereo partly drawn) [Compound I-3, 3 sulfo-methylnaltrexone]", "values": [{"measurement": "IC50", "setting": "[1]", "result": 8300, "unit": "nM"}, {"measurement": "Ki", "setting": "[1]", "result": 2200, "unit": "nM"}, {"measurement": "nH (Hill coefficient)", "setting": "[1]", "result": 0.8}, {"measurement": "IC50", "setting": "[2]", "result": 10000, "unit": "nM"}]}]}
